What was measured:
[1] = Inhibition of human liver Alpha-mannosidase
Aspergillus niger = assay: Inhibition of Aspergillus niger amyloglucosidase using p-nitrophenyl glycoside as substrate assessed as release of p-nitrophenol at 1000 uM by spectrometric analysis relative to control
Escherichia coli = assay: Inhibition of Escherichia coli beta-glucuronidase using p-nitrophenyl glycoside as substrate assessed as release of p-nitrophenol at 1000 uM by spectrometric analysis relative to control
Bos taurus [2] = organism: Bos taurus; assay: Inhibition of bovine liver beta-galactosidase using p-nitrophenyl glycoside as substrate assessed as release of p-nitrophenol at 1000 uM by spectrometric analysis relative to control
Bos taurus [3] = organism: Bos taurus; assay: Inhibition of bovine liver beta-glucuronidase using p-nitrophenyl glycoside as substrate assessed as release of p-nitrophenol at 1000 uM by spectrometric analysis relative to control
Rattus norvegicus = organism: Rattus norvegicus; assay: Inhibition of rat intestinal Alpha-glucosidase using p-nitrophenyl glycoside as substrate assessed as p-nitrophenol release at 1000 uM by spectrometric analysis relative to control
[4] = target: Alpha glucosidase (Homo sapiens) (UniProt O43451+P10253+P14410+Q2M2H8); assay: Inhibition of human Alpha-glucosidase using p-nitrophenyl glycoside as substrate assessed as p-nitrophenol release at 1000 uM by spectrometric analysis relative to control; assay type: protein assay
Sus scrofa = organism: Sus scrofa; assay: Inhibition of porcine kidney Alpha alpha-trehalase using p-nitrophenyl glycoside as substrate assessed as release of p-nitrophenol at 1000 uM by spectrometric analysis relative to control
[5] = target: Alpha-glucosidase (Saccharomyces cerevisiae S288c) (UniProt P53341+P38158+P07265); assay: Inhibition of yeast Alpha-glucosidase using p-nitrophenyl glycoside as substrate assessed as p-nitrophenol release at 1000 uM by spectrometric analysis relative to control; assay type: protein assay
[6] = target: T1, Alpha-mannosidase (Canavalia ensiformis) (UniProt C0HJB3); assay: Inhibition of jack bean alpha-mannosidase using p-nitrophenyl glycoside as substrate assessed as release of p-nitrophenol at 1000 uM by spectrometric analysis relative to control
T1 sequence (whole entry): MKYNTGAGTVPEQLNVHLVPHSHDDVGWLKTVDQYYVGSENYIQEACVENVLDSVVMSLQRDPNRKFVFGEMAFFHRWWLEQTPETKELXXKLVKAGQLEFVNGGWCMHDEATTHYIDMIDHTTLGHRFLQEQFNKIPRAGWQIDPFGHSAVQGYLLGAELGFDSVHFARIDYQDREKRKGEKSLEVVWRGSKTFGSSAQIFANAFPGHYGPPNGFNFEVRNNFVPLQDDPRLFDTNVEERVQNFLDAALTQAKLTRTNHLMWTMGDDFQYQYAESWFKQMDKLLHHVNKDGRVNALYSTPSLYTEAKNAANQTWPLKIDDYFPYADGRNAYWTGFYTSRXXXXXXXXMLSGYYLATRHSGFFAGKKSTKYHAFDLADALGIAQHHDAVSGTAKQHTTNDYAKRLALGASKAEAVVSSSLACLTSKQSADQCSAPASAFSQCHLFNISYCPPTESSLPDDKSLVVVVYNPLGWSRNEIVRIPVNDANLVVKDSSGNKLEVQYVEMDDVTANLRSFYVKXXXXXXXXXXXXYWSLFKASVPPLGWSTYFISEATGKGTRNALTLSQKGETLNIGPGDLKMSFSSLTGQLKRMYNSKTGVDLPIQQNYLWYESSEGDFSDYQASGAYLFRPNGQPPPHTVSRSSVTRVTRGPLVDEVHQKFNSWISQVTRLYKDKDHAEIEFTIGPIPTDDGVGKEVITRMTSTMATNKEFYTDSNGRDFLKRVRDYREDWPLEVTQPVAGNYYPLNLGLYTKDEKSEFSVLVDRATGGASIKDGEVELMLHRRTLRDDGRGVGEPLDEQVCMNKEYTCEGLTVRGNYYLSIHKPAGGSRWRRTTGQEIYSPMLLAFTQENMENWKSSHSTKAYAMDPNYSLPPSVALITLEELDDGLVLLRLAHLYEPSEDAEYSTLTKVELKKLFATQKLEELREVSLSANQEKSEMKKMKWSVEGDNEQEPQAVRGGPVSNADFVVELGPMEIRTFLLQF

Prunus dulcis = assay: Inhibition of almond Beta-glucosidase using p-nitrophenyl glycoside as substrate assessed as release of p-nitrophenol at 1000 uM by spectrometric analysis relative to control
Homo sapiens = organism: Homo sapiens; assay: Inhibition of human lysosome beta-glucosidase using p-nitrophenyl glycoside as substrate assessed as release of p-nitrophenol at 1000 uM by spectrometric analysis relative to control
Bos taurus [7] = organism: Bos taurus; assay: Inhibition of bovine liver beta-glucosidase using p-nitrophenyl glycoside as substrate assessed as release of p-nitrophenol at 1000 uM by spectrometric analysis relative to control
Penicillium decumbens = assay: Inhibition of Penicillium decumbens alpha-L-rhamnosidase using p-nitrophenyl glycoside as substrate assessed as release of p-nitrophenol at 1000 uM by spectrometric analysis relative to control
Oryza sativa = assay: Inhibition of rice Alpha-glucosidase using p-nitrophenyl glycoside as substrate assessed as p-nitrophenol release at 1000 uM by spectrometric analysis relative to control
[8] = target: Alpha-galactosidase (Coffea arabica) (UniProt Q42656); assay: Inhibition of coffee bean alpha-galactosidase using p-nitrophenyl glycoside as substrate assessed as release of p-nitrophenol at 1000 uM by spectrometric analysis relative to control
Chain of Alpha-galactosidase (Coffea arabica) (Q42656 16-378 limits assumed): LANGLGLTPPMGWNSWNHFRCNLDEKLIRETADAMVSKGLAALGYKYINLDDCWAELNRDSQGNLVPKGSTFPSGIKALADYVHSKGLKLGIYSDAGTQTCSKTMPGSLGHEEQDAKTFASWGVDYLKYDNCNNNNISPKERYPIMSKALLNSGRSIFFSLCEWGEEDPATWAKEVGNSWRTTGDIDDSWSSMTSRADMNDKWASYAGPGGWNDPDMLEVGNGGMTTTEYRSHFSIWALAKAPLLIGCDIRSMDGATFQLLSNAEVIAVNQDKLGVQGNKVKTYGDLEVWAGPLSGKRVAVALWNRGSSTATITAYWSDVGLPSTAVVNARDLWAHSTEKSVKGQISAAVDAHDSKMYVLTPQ

Helix pomatia = assay: Inhibition of snail beta-mannosidase using p-nitrophenyl glycoside as substrate assessed as release of p-nitrophenol at 1000 uM by spectrometric analysis relative to control

OC[C@H](NC[C@H]1OC[C@H](O)[C@@H]1O)c1ccccc1
IC50 [1]: 4.2 µM

O[C@H]1[C@H]2[C@@H](O)CC(F)(F)CN2C[C@H]1O
inhibition (Aspergillus niger): 1.8% | inhibition (Escherichia coli): 0% | inhibition (Bos taurus [2]): 0% | inhibition (Bos taurus [3]): 11.4% | inhibition (Rattus norvegicus): 25% | inhibition [4]: 0.4% | inhibition (Sus scrofa): 1.5% | inhibition [5]: 1.1% | inhibition [6]: 12.2% | inhibition (Prunus dulcis): 3.7% | inhibition (Homo sapiens): 0% | inhibition (Bos taurus [7]): 5.8% | inhibition (Penicillium decumbens): 144% | inhibition (Oryza sativa): 2.5% | inhibition [8]: 0% | inhibition (Helix pomatia): 0.8%

OC[C@H]1[C@@H](O)[C@@H](O)CN1Cc1ccc(I)cc1
IC50 [1]: 0.09 µM

OC[C@@H](O)[C@H]1NC[C@@H](O)[C@H]1O
IC50 [1]: 3.9 µM

OC[C@@H]1[C@@H](O)[C@@H](O)[C@H]2[C@H](O)CCCN21
IC50 [1]: 1.2 µM

O[C@@H]1[C@@H]2[C@@H](O)CC(F)(F)CN2C[C@@H]1O
inhibition (Aspergillus niger): 10.9% | inhibition (Escherichia coli): 0% | inhibition (Bos taurus [3]): 14.1% | inhibition (Rattus norvegicus): 0% | inhibition [4]: 0% | inhibition (Sus scrofa): 28.4% | inhibition [5]: 0% | inhibition [6]: 28.2% | inhibition (Prunus dulcis): 10.5% | inhibition (Homo sapiens): 0% | inhibition (Bos taurus [7]): 38.5% | inhibition (Penicillium decumbens): 2.2% | inhibition (Oryza sativa): 0% | inhibition [8]: 0% | inhibition (Helix pomatia): 0%

O[C@@H]1[C@@H]2[C@H](O)C[C@@H](F)CN2C[C@@H]1O
inhibition (Aspergillus niger): 11.4% | inhibition (Escherichia coli): 0% | inhibition (Bos taurus [2]): 15% | inhibition (Bos taurus [3]): 0.1% | inhibition (Rattus norvegicus): 11.6% | inhibition [4]: 0% | inhibition (Sus scrofa): 11.7% | inhibition [5]: 4.5% | inhibition [6]: 18.8% | inhibition (Prunus dulcis): 4.7% | inhibition (Homo sapiens): 3.4% | inhibition (Bos taurus [7]): 9% | inhibition (Penicillium decumbens): 125% | inhibition (Oryza sativa): 23.5% | inhibition [8]: 0% | inhibition (Helix pomatia): 1.7%

O[C@@H]1[C@@H]2[C@H](O)C[C@H](F)CN2C[C@@H]1O
inhibition (Aspergillus niger): 10.9% | inhibition (Escherichia coli): 28.9% | inhibition (Bos taurus [2]): 41.7% | inhibition [4]: 37.6% | inhibition (Sus scrofa): 0.5% | inhibition [5]: 18% | inhibition [6]: 0% | inhibition (Prunus dulcis): 3.2% | inhibition (Bos taurus [7]): 38.5% | inhibition (Penicillium decumbens): 52% | inhibition (Oryza sativa): 0% | inhibition [8]: 0% | inhibition (Helix pomatia): 0%

O[C@H]1[C@H]2[C@@H](O)C[C@H](F)CN2C[C@H]1O
inhibition (Aspergillus niger): 2.3% | inhibition (Escherichia coli): 0% | inhibition (Bos taurus [2]): 0% | inhibition (Bos taurus [3]): 3.1% | inhibition (Rattus norvegicus): 0% | inhibition [4]: 3% | inhibition [5]: 3.4% | inhibition [6]: 14.9% | inhibition (Prunus dulcis): 3.2% | inhibition (Homo sapiens): 7.1% | inhibition (Bos taurus [7]): 3.8% | inhibition (Penicillium decumbens): 11.3% | inhibition (Oryza sativa): 15.9% | inhibition [8]: 0% | inhibition (Helix pomatia): 21.7%

O[C@@H]1[C@@H]2[C@@H](O)C[C@H](F)CN2C[C@@H]1O
inhibition (Aspergillus niger): 17.7% | inhibition (Escherichia coli): 9.3% | inhibition (Bos taurus [2]): 11.7% | inhibition (Bos taurus [3]): 12.5% | inhibition (Rattus norvegicus): 18.3% | inhibition [4]: 5.1% | inhibition [5]: 4.5% | inhibition [6]: 3.9% | inhibition (Prunus dulcis): 0% | inhibition (Homo sapiens): 9.6% | inhibition (Bos taurus [7]): 16% | inhibition (Penicillium decumbens): 0.43% | inhibition (Oryza sativa): 0% | inhibition [8]: 0% | inhibition (Helix pomatia): 2.5%

NC[C@@H]1[C@@H](O)[C@@H](O)[C@H]2[C@H](O)CCCN21
Ki [1]: 0.097 µM

O[C@@H]1[C@@H]2[C@H](O)CCCN2C[C@@H]1O
inhibition (Aspergillus niger): 11.4% | inhibition (Escherichia coli): 0% | inhibition (Bos taurus [2]): 0% | inhibition (Bos taurus [3]): 8.8% | inhibition (Rattus norvegicus): 0% | inhibition [4]: 0% | inhibition (Sus scrofa): 0% | inhibition [5]: 3.4% | inhibition [6]: 2.8% | inhibition (Prunus dulcis): 1% | inhibition (Homo sapiens): 3.1% | inhibition (Bos taurus [7]): 0% | inhibition (Penicillium decumbens): 58% | inhibition (Oryza sativa): 0% | inhibition [8]: 0% | inhibition (Helix pomatia): 11.7%

O[C@@H]1[C@H](O)C[S+]2CCCS[C@H]12 (stereo partly drawn)
IC50 [1]: 97 µM

O[C@H]1[C@H]2[C@@H](O)CCCN2C[C@H]1O
inhibition (Aspergillus niger): 1.8% | inhibition (Escherichia coli): 0% | inhibition (Bos taurus [2]): 0.8% | inhibition (Bos taurus [3]): 5.7% | inhibition (Rattus norvegicus): 0% | inhibition [4]: 0% | inhibition (Sus scrofa): 0% | inhibition [5]: 0% | inhibition [6]: 51% | inhibition (Prunus dulcis): 3.2% | inhibition (Homo sapiens): 0% | IC50 [1]: 51 µM | inhibition (Bos taurus [7]): 4.5% | inhibition (Penicillium decumbens): 47.5% | inhibition (Oryza sativa): 0% | inhibition [8]: 0% | inhibition (Helix pomatia): 0%

O[C@@H]1[C@@H]2[C@H](O)CC(F)(F)CN2C[C@@H]1O
inhibition (Aspergillus niger): 0.1% | inhibition (Escherichia coli): 0% | inhibition (Bos taurus [2]): 0.8% | inhibition (Bos taurus [3]): 18.8% | inhibition (Rattus norvegicus): 2.7% | inhibition [4]: 2.2% | inhibition (Sus scrofa): 1.5% | inhibition [5]: 0% | inhibition [6]: 44.8% | inhibition (Prunus dulcis): 0% | inhibition (Homo sapiens): 0.7% | inhibition (Bos taurus [7]): 10.2% | inhibition (Penicillium decumbens): 63% | inhibition (Oryza sativa): 0% | inhibition [8]: 0% | inhibition (Helix pomatia): 0%

O[C@H]1[C@H]2[C@H](O)CCCN2C[C@H]1O [TRIDOLGOSIR]
inhibition (Aspergillus niger): 8.6% | inhibition (Escherichia coli): 0% | inhibition (Bos taurus [2]): 5.8% | inhibition (Bos taurus [3]): 8.8% | inhibition (Rattus norvegicus): 13.1% | inhibition [4]: 0% | inhibition (Sus scrofa): 1% | inhibition [5]: 0% | inhibition [6]: 0.28% | inhibition (Prunus dulcis): 2.1% | inhibition (Homo sapiens): 0% | IC50 [1]: 0.28 µM | inhibition (Bos taurus [7]): 11.5% | inhibition (Penicillium decumbens): 34.2% | inhibition (Oryza sativa): 31.2% | inhibition [8]: 0% | inhibition (Helix pomatia): 0%

CC(=O)NCCCC[C@H]1C[C@@H](O)[C@@H]2[C@H](O)[C@H](O)CN2C1
IC50 [1]: 51 µM

O[C@H]1[C@H]2[C@@H](O)C[C@@H](F)CN2C[C@H]1O
inhibition (Aspergillus niger): 1.4% | inhibition (Escherichia coli): 4.1% | inhibition (Bos taurus [2]): 29.2% | inhibition (Bos taurus [3]): 15.1% | inhibition (Rattus norvegicus): 10.9% | inhibition [4]: 5.3% | inhibition (Sus scrofa): 4.6% | inhibition [5]: 6.2% | inhibition [6]: 14.4% | inhibition (Prunus dulcis): 5.3% | inhibition (Homo sapiens): 17.3% | inhibition (Bos taurus [7]): 19.9% | inhibition (Penicillium decumbens): 118% | inhibition (Oryza sativa): 14% | inhibition [8]: 0% | inhibition (Helix pomatia): 3.3%

OC[C@H]1[C@@H](O)[C@@H](O)CN1Cc1ccc(Br)cc1
IC50 [1]: 0.09 µM

Cc1ccc(C(=O)C[C@H]2CC[C@@H](O)[C@@H]3[C@H](O)[C@H](O)CN23)cc1
IC50 [1]: 29 µM

O[C@@H]1[C@@H]2[C@@H](O)C[C@@H](F)CN2C[C@@H]1O
inhibition (Aspergillus niger): 2.3% | inhibition (Escherichia coli): 9.3% | inhibition (Bos taurus [2]): 21.7% | inhibition (Rattus norvegicus): 47.3% | inhibition [4]: 15.6% | inhibition (Sus scrofa): 36% | inhibition [5]: 6.2% | inhibition [6]: 1.6% | inhibition (Prunus dulcis): 0% | inhibition (Homo sapiens): 43.5% | inhibition (Bos taurus [7]): 25.6% | inhibition (Penicillium decumbens): 5.2% | inhibition (Oryza sativa): 27.3% | inhibition [8]: 0% | inhibition (Helix pomatia): 1.7%

O=C(OC[C@H](NC[C@H]1OC[C@H](O)[C@@H]1O)c1ccccc1)c1ccc(Br)cc1
IC50 [1]: 89 µM

OC[C@H]1[C@@H](O)[C@@H](O)CN1Cc1ccccc1
IC50 [1]: 0.09 µM

— ChEMBL document CHEMBL6096649, “Enantiomeric C-6 fluorinated swainsonine derivatives as highly selective and potent inhibitors of α-mannosidase and α-l-rhamnosidase: Design, synthesis and structure-activity relationship study” (Eur J Med Chem, 2025)
